These results are taken from patent US20250304535A1, “KAT6 Inhibitors” (BeiGene Switzerland GmbH, priority 2024, published 2025).

The test system of experiment [1] is histone H3K23 acetylation in U-2 OS cells. Nature of the experiment: Histone H3 lysine 23 acetylation assay in U-2 OS cells (high content analysis). It is filed as cell-based. Conditions: Homo sapiens, U2OS, 24 hrs exposure, H3K23ac level. How it is done:
Assay B: Histone H3 lysine 23 Acetylation Assay
Compounds were tested for their capacity to suppress the histone H3K23 acetylation in the following high content analysis assay.
The cell line U-2 OS (ATCC HTB-96) was seeded at a density of 2000 cells per well in black 384 well cell culture/imaging microplates in 45 μl McCoy's 5A medium with […]. After overnight incubation in 37° C., 5% CO2 incubator, cells were then treated with a 9-point dilution series of compounds and a blank control group with medium containing 0.1% DMSO.
Following a 24 hrs exposure to the compounds, the cells were fixed with 4% immunohistochemical fixative for 20 mins at room temperature, washed with DPBS with 2% fetal bovine serum, and permed with Perm Buffer III for 30 min on ice, washed with DPBS with 2% fetal bovine serum. Then the cells were blocked with Odyssey blocking buffer containing 0.1% Tween 20. 20 ul Anti-Histone H3 (acetyl K23) antibody (Abcam, ab177275) in odyssey blocking buffer containing 0.1% Tween20 was added and incubated overnight at 4° C. After incubation, the cells were washed for 3 times and a secondary antibody Anti-rabbit IgG (H+L), F(ab′)2 Fragment (Alexa Fluor® 647 Conjugate) (CST, 4414S) were added into cells for one hour. The cells were washed and 1 ug/ml DAPI (Thermo, 62248) were added for 10 min. Then cells were washed and read on the PerkinElmer Operetta CLS high content analysis system. The nuclei were identified by DAPI and H3K23ac level was calculated from the Alexa Fluor 647 intensity in the nuclei. Inhibition rate of H3K23ac was calculated as the mean intensity of cells per well relative to blank controls on the same plate.

Experiment [2] has as its target Recombinant human KAT6B protein (657-1069) (Homo sapiens (Human), UniProt Q8WYB5). Put plainly: KAT6B biochemical TR-FRET assay. To be noted: histone H4 peptide 1000 nM, AcCoA 100 nM, enzyme 5 nM. How it is done: Enzymatic reactions of KAT6A and KAT6B were performed using Fluorescence Resonance Energy Transfer (TR-FRET) assay, which measures acetylation of a synthetic, biotinylated histone-H4 peptide by the KAT6A and KAT6B enzymes. Recombinant human KAT6A protein (497-780) were expressed in BL21 cell using an E. coli expression system. Recombinant human KAT6B protein (657-1069) was expressed in sf9 cell using a baculovirus expression system. Histone H4 peptide (SEQ ID NO: 1—[…]-GGK-Biotin), which was used as substrate, was synthesized by GL Biochem, Shanghai, China. Acetyl coenzyme A was purchased from Sigma-Aldrich (#A-2056).
(§1) Testing for the inhibition activities of various compounds disclosed herein was carried out at room temperature in assay buffer containing 100 mM Tris/HCl Ph7.8, 15 mM NaCl, 0.01% chicken egg white albumin, 1 mM DTT and 0.01% Tween-20. Compounds in DMSO were dispensed into wells of a black, 384-well plate (Corning 4514) using ECHO555 (Beckman). The final concentration ranges of the test compounds were 0.0625-1,000 nM, 0.625-10,000 nM, or 0.313-5,000 nM. Five μL of KAT6A or KAT6B enzyme solution were added to wells, and the plate was incubated for 1 hour at room temperature (rt). After incubation for 1 hour at rt, 5 μL H4 and AcCoA substrate solutions were added to the wells to initiate reaction, and the plate was incubated. After 2 hours reaction, 5 μL detection reagent were added to the wells, and the plate was incubated for 2 hours. After two hours incubation, detection reagent containing 5 nM Anti-histone H4 antibody (ABCAM #ab177790), 100 μM formic acid (sigma #06473-100ML), 0.1 test/μL streptavidin-XL665 (PerkinElmer #610SAXLG), 0.05 test/μL PAb anti-rabbit IgG-Eu (PerkinElmer μ61PARKLA) was added to the wells. TR-FRET was measured on a microplate reader (PHERAstar FSX, BMG labtech). The IC50s were calculated based on inhibition of enzyme activity in the presence of increasing concentrations of test compounds, and the results are shown in Table 6. In Table 6, I≤5 nM, 5 nM<II≤50 nM.

In experiment [3] the target is Recombinant human KAT6A protein (497-780) (Homo sapiens (Human), UniProt Q92794). Put plainly: KAT6A biochemical TR-FRET assay. Conditions: histone H4 peptide 2000 nM, AcCoA 300 nM, enzyme 5 nM. The protocol:
Enzymatic reactions of KAT6A and KAT6B were performed using Fluorescence Resonance Energy Transfer (TR-FRET) assay, which measures acetylation of a synthetic, biotinylated histone-H4 peptide by the KAT6A and KAT6B enzymes. Recombinant human KAT6A protein (497-780) were expressed in BL21 cell using an E. coli expression system. Recombinant human KAT6B protein (657-1069) was expressed in sf9 cell using a baculovirus expression system. […] Acetyl coenzyme A was purchased from Sigma-Aldrich (#A-2056).
as §1, with “The IC50s were calculated based on inhibition of enzyme activity in the presence of increasing concentrations of test compounds, and the results are shown in Table 6.” left out

Chain of Recombinant human KAT6B protein (657-1069) (Q8WYB5 657-1069): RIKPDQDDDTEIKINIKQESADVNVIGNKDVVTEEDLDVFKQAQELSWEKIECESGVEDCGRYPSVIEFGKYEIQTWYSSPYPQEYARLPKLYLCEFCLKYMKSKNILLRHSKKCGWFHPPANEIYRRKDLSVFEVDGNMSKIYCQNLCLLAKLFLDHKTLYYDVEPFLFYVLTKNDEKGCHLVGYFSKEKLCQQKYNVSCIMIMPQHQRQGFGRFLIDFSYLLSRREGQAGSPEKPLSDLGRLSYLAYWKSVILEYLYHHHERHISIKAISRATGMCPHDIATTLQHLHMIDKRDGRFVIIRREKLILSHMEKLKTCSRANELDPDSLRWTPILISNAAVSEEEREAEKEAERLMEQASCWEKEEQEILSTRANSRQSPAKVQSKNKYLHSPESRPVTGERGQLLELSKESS
Chain of Recombinant human KAT6A protein (497-780) (Q92794 497-780): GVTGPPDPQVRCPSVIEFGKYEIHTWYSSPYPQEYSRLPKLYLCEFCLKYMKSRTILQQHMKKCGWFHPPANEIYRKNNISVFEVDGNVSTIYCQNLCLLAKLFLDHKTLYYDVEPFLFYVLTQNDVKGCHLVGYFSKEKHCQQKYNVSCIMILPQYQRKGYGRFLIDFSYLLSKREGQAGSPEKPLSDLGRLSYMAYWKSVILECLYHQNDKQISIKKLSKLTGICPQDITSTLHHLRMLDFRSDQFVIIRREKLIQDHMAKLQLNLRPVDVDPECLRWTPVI

On to `COc1ccc(C2(C)CCC2)cc1S(=O)(=O)NC(=O)c1ccc(Cn2cccn2)c(OC)n1` [Example C76, 5-((1H-pyrazol-1-yl)methyl)-6-methoxy-N-((2-methoxy-5-(1-methylcyclobutyl)phenyl)sulfonyl) picolinamide], for which the IC50 in experiment [1] was at most 10 nM; in experiment [2], at most 5 nM; in experiment [3], at most 5 nM.

Consider `CCOc1nc(C(=O)NS(=O)(=O)c2nc(C(C)(C)C)ccc2OC)ccc1Cn1cccn1` [Example C34, 5-((1H-pyrazol-1-yl)methyl)-N-((6-(tert-butyl)-3-methoxypyridin-2-yl)sulfonyl)-6-ethoxy-picolinamide], for which the IC50 is at most 10 nM in experiment [1], at most 5 nM in experiment [2] and at most 5 nM in experiment [3].

With `COc1ccc(C(C)(C)C)nc1S(=O)(=O)NC(=O)c1ccc(Cn2cccn2)c(F)c1` [Example C24, 4-((1H-pyrazol-1-yl)methyl)-N-((6-(tert-butyl)-3-methoxypyridin-2-yl)sulfonyl)-3-fluorobenzamide], the IC50 is 10 to 100 nM in experiment [1], at most 5 nM in experiment [2] and at most 5 nM in experiment [3].

Consider `CCc1cc(C(=O)NS(=O)(=O)c2nc(C(C)(C)C)ccc2OC)ccc1Cn1cccn1` [Example C23, 4-((1H-pyrazol-1-yl)methyl)-N-((6-(tert-butyl)-3-methoxypyridin-2-yl)sulfonyl)-3-ethylbenzamide], for which the IC50 in experiment [1] is at most 10 nM; in experiment [2], at most 5 nM; in experiment [3], at most 5 nM.

On to `COc1cnc(C(C)(C)C)cc1S(=O)(=O)NC(=O)c1ccc(Cn2cccn2)c(OC)n1` [Example C72, 5-((1H-pyrazol-1-yl)methyl)-N-((2-(tert-butyl)-5-methoxypyridin-4-yl)sulfonyl)-6-methoxy-picolinamide], for which the results for the IC50 in experiment [1], in experiment [2] and in experiment [3] were at most 10 nM, at most 5 nM and at most 5 nM, respectively.

On to `C=Cc1cc(C(=O)NS(=O)(=O)c2c(OC)ccc3c2OC(C)(C)C3)ccc1Cn1cccn1` [Example C44, 4-((1H-pyrazol-1-yl)methyl)-N-((6-methoxy-2,2-dimethyl-2,3-dihydrobenzofuran-7-yl)sulfonyl)-3-vinylbenzamide], for which the 50% inhibitory concentration (IC50) is at most 10 nM in experiment [1], at most 5 nM in experiment [2] and at most 5 nM in experiment [3].

As for `COc1ccc(C(C)(C)C)nc1S(=O)(=O)NC(=O)c1ccc(Cn2cccn2)c(C2CC2)n1` [Example C48, 5-((1H-pyrazol-1-yl)methyl)-N-((6-(tert-butyl)-3-methoxypyridin-2-yl)sulfonyl)-6-cyclopropylpicolinamide], the values for the IC50 in experiment [1], in experiment [2] and in experiment [3] were at most 10 nM, at most 5 nM and at most 5 nM, respectively.

`COc1ccc(C(C)(C)C)cc1S(=O)(=O)NC(=O)c1ccc(Cn2cccn2)c(N(C)C)c1` [Example C13, 4-((1H-pyrazol-1-yl)methyl)-N-((5-(tert-butyl)-2-methoxyphenyl)sulfonyl)-3-(dimethylamino)benzamide]: the values for the IC50 in experiment [1], in experiment [2] and in experiment [3] were at most 10 nM, at most 5 nM and at most 5 nM, respectively.

On to `COc1ccc(C(C)(C)C)cc1S(=O)(=O)NC(=O)c1ccc(Cn2cccn2)c(C2CCO2)c1` (stereo not drawn) [Example C18, 4-((1H-pyrazol-1-yl)methyl)-N-((5-(tert-butyl)-2-methoxyphenyl)sulfonyl)-3-(oxetan-2-yl)benzamide], for which the IC50 in experiment [1] was at most 10 nM; in experiment [2] it was at most 5 nM; in experiment [3], at most 5 nM.

Consider `[2H]C([2H])([2H])Oc1ccc(C(C)(C)C)nc1S(=O)(=O)NC(=O)c1ccc(Cn2cccn2)c(OC)n1` [Example C66, 5-((1H-pyrazol-1-yl)methyl)-N-((6-(tert-butyl)-3-(methoxy-d3)pyridin-2-yl)sulfonyl)-6-methoxy-picolinamide], for which the concentration for half-maximal inhibition (IC50) in experiment [1] was at most 10 nM; in experiment [2] it was at most 5 nM; in experiment [3] it was at most 5 nM.

`COc1ccc(C(C)(C)C)nc1S(=O)(=O)NC(=O)c1ccc(Cn2cccn2)c(C(F)(F)F)c1` [Example C25, 4-((1H-pyrazol-1-yl)methyl)-N-((6-(tert-butyl)-3-methoxypyridin-2-yl)sulfonyl)-3-(trifluoromethyl)benzamide]: the values for the IC50 in experiment [1], in experiment [2] and in experiment [3] were at most 10 nM, at most 5 nM and at most 5 nM, respectively.

Regarding `COc1ccc(C(C)(C)C)nc1S(=O)(=O)NC(=O)c1ccc(Cn2cccn2)c(CC(F)F)c1` [Example C31, 4-((1H-pyrazol-1-yl)methyl)-N-((6-(tert-butyl)-3-methoxypyridin-2-yl)sulfonyl)-3-(2,2-difluoroethyl)benzamide], the half-maximal inhibitory concentration (IC50) in experiment [1] was 10 to 100 nM; in experiment [2] it was at most 5 nM; in experiment [3] it was at most 5 nM.

In the case of `COc1ccc(C(C)(C)C)cc1S(=O)(=O)NC(=O)c1ccc(Cn2cccn2)c(OC)n1` [Example C40, 5-((1H-pyrazol-1-yl)methyl)-N-((5-(tert-butyl)-2-methoxyphenyl)sulfonyl)-6-methoxypicolinamide], the figures for the IC50 in experiment [1], in experiment [2] and in experiment [3] were at most 10 nM, at most 5 nM and at most 5 nM, respectively.

Turning to `COc1ccc(C2(C(F)(F)F)CC2)cc1S(=O)(=O)NC(=O)c1ccc(Cn2cccn2)c(OC)n1` [Example C59, 5-((1H-pyrazol-1-yl)methyl)-6-methoxy-N-((2-methoxy-5-(1-(trifluoromethyl)cyclopropyl)phenyl)sulfonyl)picolinamide], the IC50 is at most 10 nM in experiment [1], at most 5 nM in experiment [2] and at most 5 nM in experiment [3].

`C=Cc1cc(C(=O)NS(=O)(=O)c2c(OC)ccc3c2OCC3(C)C)ccc1Cn1cccn1` [Example C50, 4-((1H-pyrazol-1-yl)methyl)-N-((6-methoxy-3,3-dimethyl-2,3-dihydrobenzofuran-7-yl)sulfonyl)-3-vinylbenzamide]: the half-maximal inhibitory concentration (IC50) in experiment [1] is at most 10 nM; in experiment [2], at most 5 nM; in experiment [3], at most 5 nM.
